Experimental data taken from patent US5324502A, “Radiopharmaceuticals for imaging the heart” (priority 1992, dated 1994).
Like-named read-outs stand apart in the source and are kept apart here.

Key:
[1] = Octanol/water partition coefficient of radiolabeled gallium complexes; assay type: physicochemical
Method: Octanol/water partition coefficients were measured by vortex mixing 1 mL of 1-octanol and 1 mL of isotonic Tris buffer (pH 7.0) with a 1-5 μL sample of the radiolabeled gallium complex. Following centrifugation at >1200 g for 5 minutes, the octanol and aqueous phases were sampled and counted in an automatic well counter.

[2] = rat
Method: The gallium-67 complexes are prepared by ligand exchange from gallium-67 chloride, employing the tris(acetylacetonato)gallium(III) complex as an intermediate. The Ga-67 acetylacetonate in ethanol is reacted with the chelating ligand or ligand precursor at elevated temperature to form rapidly the desired gallium radiopharmaceutical. […] The biodistribution of several radiopharmaceuticals was determined in rats following intravenous injection using techniques previously described (M. A. Green, Nuclear Medicine and Biology 14:59-61, 1987; E. John and M. A. Green, J. Medicinal Chemistry, 33:1764-1770, 1990).
Under ether anesthesia, 1 to 3 μCi (0.1-0.2 mL) of no-carrier-added Ga-67 compound was administered by bolus injection into the femoral vein of male Sprague-Dawley rats. The ether anesthetized rats were sacrificed by decapitation at given time intervals post-injection, organs of interest were removed, weighed, and the gallium-67 activity counted. The biodistribution was calculated as a percentage of the injected dose per gram of tissue and percentage of injected dose per organ for each sample.

COc1ccc([O-])c(C=NCCCNCCNCCCN=Cc2cc(OC)ccc2[O-])c1.[67Ga+3] [(5-MeOSal)2 BAPEN, ^67 GaL^+ L = [bis(5-methoxysalicylaldimino)-N,N'-bis(3-aminopropyl)ethylenediamine]]
log P ([1]; octanol/tris buffer, pH 7): 0.53 | % Injected Dose per Gram Tissue, Brain ([2]; in vivo, iv): 0.00 ± 0.00 | % injected dose in heart, 1 min ([2]; in vivo, iv): 0.34 ± 0.03 % injected dose | % injected dose in heart, 2 h ([2]; in vivo, iv): 0.23 ± 0.03 % injected dose | % Injected Dose per Gram Tissue, Blood ([2]; in vivo, iv, 1 min): 0.52 ± 0.08 | % Injected Dose per Gram Tissue, Brain ([2]; in vivo, iv, 1 min): 0.02 ± 0.01 | % Injected Dose per Gram Tissue, Heart ([2]; in vivo, iv, 1 min): 0.46 ± 0.03 | % Injected Dose per Gram Tissue, Kidney (one) ([2]; in vivo, iv, 1 min): 9.31 ± 0.32 | % Injected Dose per Gram Tissue, Liver ([2]; in vivo, iv, 1 min): 3.01 ± 0.51 | % Injected Dose per Gram Tissue, Lungs ([2]; in vivo, iv, 1 min): 0.55 ± 0.14 | % Injected Dose per Gram Tissue, Spleen ([2]; in vivo, iv, 1 min): 0.25 ± 0.02 | Heart/Blood ([2]; in vivo, iv, 1 min): 0.89 ± 0.12 | % Injected Dose per Gram Tissue, Blood ([2]; in vivo, iv, 2 h): 0.08 ± 0.01 | % Injected Dose per Gram Tissue, Heart ([2]; in vivo, iv, 2 h): 0.33 ± 0.03 | % Injected Dose per Gram Tissue, Kidney (one) ([2]; in vivo, iv, 2 h): 1.57 ± 0.13 | % Injected Dose per Gram Tissue, Liver ([2]; in vivo, iv, 2 h): 0.78 ± 0.01 | % Injected Dose per Gram Tissue, Lungs ([2]; in vivo, iv, 2 h): 0.16 ± 0.02 | % Injected Dose per Gram Tissue, Spleen ([2]; in vivo, iv, 2 h): 0.07 ± 0.01 | Heart/Blood ([2]; in vivo, iv, 2 h): 4.33 ± 0.28 | % Injected Dose per Gram Tissue, Blood ([2]; in vivo, iv, […]): 0.15 ± 0.04 | % Injected Dose per Gram Tissue, Heart ([2]; in vivo, iv, […]): 0.36 ± 0.01 | % Injected Dose per Gram Tissue, Kidney (one) ([2]; in vivo, iv, […]): 4.65 ± 1.29 | % Injected Dose per Gram Tissue, Liver ([2]; in vivo, iv, […]): 2.09 ± 0.78 | % Injected Dose per Gram Tissue, Lungs ([2]; in vivo, iv, […]): 0.22 ± 0.22 | % Injected Dose per Gram Tissue, Spleen ([2]; in vivo, iv, […]): 0.09 ± 0.01 | Heart/Blood ([2]; in vivo, iv, […]): 2.61 ± 0.55

[67Ga+3].[O-]c1ccccc1C=NCCCNCCNCCCN=Cc1ccccc1[O-] [Sal2 BAPEN, ^67 GaL^+ L = [bis(salicylaldimino)-N,N'-bis(3-aminopropyl)-ethylenediamine]]
log P ([1]; octanol/tris buffer, pH 7): 0.56 | % injected dose in heart, 1 min ([2]; in vivo, iv): 0.45 ± 0.01 % injected dose | % injected dose in heart, 2 h ([2]; in vivo, iv): 0.41 ± 0.03 % injected dose | % Injected Dose per Gram Tissue, Blood ([2]; in vivo, iv, 1 min): 0.30 ± 0.01 | % Injected Dose per Gram Tissue, Brain ([2]; in vivo, iv, 1 min): 0.02 ± 0.01 | % Injected Dose per Gram Tissue, Heart ([2]; in vivo, iv, 1 min): 0.65 ± 0.02 | % Injected Dose per Gram Tissue, Kidney (one) ([2]; in vivo, iv, 1 min): 12.39 ± 0.55 | % Injected Dose per Gram Tissue, Liver ([2]; in vivo, iv, 1 min): 3.27 ± 0.44 | % Injected Dose per Gram Tissue, Lungs ([2]; in vivo, iv, 1 min): 0.85 ± 0.09 | % Injected Dose per Gram Tissue, Spleen ([2]; in vivo, iv, 1 min): 0.27 ± 0.03 | Heart/Blood ([2]; in vivo, iv, 1 min): 2.15 ± 0.05 | % Injected Dose per Gram Tissue, Blood ([2]; in vivo, iv, 2 h): 0.05 ± 0.01 | % Injected Dose per Gram Tissue, Brain ([2]; in vivo, iv, 2 h): 0.01 ± 0.003 | % Injected Dose per Gram Tissue, Heart ([2]; in vivo, iv, 2 h): 0.58 ± 0.05 | % Injected Dose per Gram Tissue, Kidney (one) ([2]; in vivo, iv, 2 h): 1.85 ± 0.30 | % Injected Dose per Gram Tissue, Liver ([2]; in vivo, iv, 2 h): 0.64 ± 0.10 | % Injected Dose per Gram Tissue, Lungs ([2]; in vivo, iv, 2 h): 0.24 ± 0.03 | % Injected Dose per Gram Tissue, Spleen ([2]; in vivo, iv, 2 h): 0.11 ± 0.01 | Heart/Blood ([2]; in vivo, iv, 2 h): 12.44 ± 0.42 | % Injected Dose per Gram Tissue, Blood ([2]; in vivo, iv, […]): 0.07 ± 0.01 | % Injected Dose per Gram Tissue, Brain ([2]; in vivo, iv, […]): 0.01 ± 0.001 | % Injected Dose per Gram Tissue, Heart ([2]; in vivo, iv, […]): 0.60 ± 0.03 | % Injected Dose per Gram Tissue, Kidney (one) ([2]; in vivo, iv, […]): 4.47 ± 0.62 | % Injected Dose per Gram Tissue, Liver ([2]; in vivo, iv, […]): 1.20 ± 0.16 | % Injected Dose per Gram Tissue, Lungs ([2]; in vivo, iv, […]): 0.29 ± 0.02 | % Injected Dose per Gram Tissue, Spleen ([2]; in vivo, iv, […]): 0.11 ± 0.01 | Heart/Blood ([2]; in vivo, iv, […]): 8.34 ± 0.66

^67 GaL^+ L = [(4,6-MeO2 Sal)2 DM-BAPEN, ^67 GaL^+ L = [bis(4,6-dimethoxysalicylaldimino)-N,N'-bis(2,2'-dimethyl-3-aminopropyl)-ethylenediamine]]
log P ([1]; 1-octanol / isotonic Tris buffer pH 7.0): 2.73 | % Injected Dose per Gram Tissue, Blood ([2]; i.v., 1 min): 1.30 ± 0.45 % Injected Dose per Gram Tissu | % Injected Dose per Gram Tissue, Brain ([2]; i.v., 1 min): 0.06 ± 0.01 % Injected Dose per Gram Tissu | % Injected Dose per Gram Tissue, Heart ([2]; i.v., 1 min): 1.31 ± 0.17 % Injected Dose per Gram Tissu | % Injected Dose per Gram Tissue, Kidney (one) ([2]; i.v., 1 min): 10.62 ± 0.94 % Injected Dose per Gram Tissu | % Injected Dose per Gram Tissue, Liver ([2]; i.v., 1 min): 5.82 ± 0.93 % Injected Dose per Gram Tissu | % Injected Dose per Gram Tissue, Lungs ([2]; i.v., 1 min): 1.24 ± 0.20 % Injected Dose per Gram Tissu | % Injected Dose per Gram Tissue, Spleen ([2]; i.v., 1 min): 1.59 ± 0.57 % Injected Dose per Gram Tissu | % Injected Dose per Organ, Blood ([2]; i.v., 1 min): 18.76 ± 6.91 % Injected Dose per Organ | % Injected Dose per Organ, Brain ([2]; i.v., 1 min): 0.10 ± 0.02 % Injected Dose per Organ | % Injected Dose per Organ, Heart ([2]; i.v., 1 min): 1.03 ± 0.17 % Injected Dose per Organ | % Injected Dose per Organ, Kidney (one) ([2]; i.v., 1 min): 8.33 ± 0.80 % Injected Dose per Organ | % Injected Dose per Organ, Liver ([2]; i.v., 1 min): 50.62 ± 5.72 % Injected Dose per Organ | % Injected Dose per Organ, Lungs ([2]; i.v., 1 min): 1.63 ± 0.47 % Injected Dose per Organ | % Injected Dose per Organ, Spleen ([2]; i.v., 1 min): 1.07 ± 0.35 % Injected Dose per Organ | % injected dose in heart, 1 min ([2]; i.v., 1 min, preliminary studies): 1.03 ± 0.17 % injected dose | % Injected Dose per Gram Tissue, Blood ([2]; i.v., 15 min): 0.13 ± 0.01 % Injected Dose per Gram Tissu | % Injected Dose per Gram Tissue, Brain ([2]; i.v., 15 min): 0.03 ± 0.01 % Injected Dose per Gram Tissu | % Injected Dose per Gram Tissue, Heart ([2]; i.v., 15 min): 1.23 ± 0.07 % Injected Dose per Gram Tissu | % Injected Dose per Gram Tissue, Kidney (one) ([2]; i.v., 15 min): 10.49 ± 0.92 % Injected Dose per Gram Tissu | % Injected Dose per Gram Tissue, Liver ([2]; i.v., 15 min): 3.92 ± 0.20 % Injected Dose per Gram Tissu | % Injected Dose per Gram Tissue, Lungs ([2]; i.v., 15 min): 0.63 ± 0.03 % Injected Dose per Gram Tissu | % Injected Dose per Gram Tissue, Spleen ([2]; i.v., 15 min): 1.96 ± 0.32 % Injected Dose per Gram Tissu | % Injected Dose per Organ, Blood ([2]; i.v., 15 min): 1.97 ± 0.15 % Injected Dose per Organ | % Injected Dose per Organ, Brain ([2]; i.v., 15 min): 0.04 ± 0.01 % Injected Dose per Organ | % Injected Dose per Organ, Heart ([2]; i.v., 15 min): 0.93 ± 0.04 % Injected Dose per Organ | % Injected Dose per Organ, Kidney (one) ([2]; i.v., 15 min): 8.77 ± 0.60 % Injected Dose per Organ | % Injected Dose per Organ, Liver ([2]; i.v., 15 min): 36.83 ± 2.91 % Injected Dose per Organ | % Injected Dose per Organ, Lungs ([2]; i.v., 15 min): 0.75 ± 0.05 % Injected Dose per Organ | % Injected Dose per Organ, Spleen ([2]; i.v., 15 min): 1.25 ± 0.20 % Injected Dose per Organ | % Injected Dose per Gram Tissue, Blood ([2]; i.v., 120 min): 0.03 ± 0.01 % Injected Dose per Gram Tissu | % Injected Dose per Gram Tissue, Brain ([2]; i.v., 120 min): 0.02 ± 0.01 % Injected Dose per Gram Tissu | % Injected Dose per Gram Tissue, Heart ([2]; i.v., 120 min): 1.36 ± 0.09 % Injected Dose per Gram Tissu | % Injected Dose per Gram Tissue, Kidney (one) ([2]; i.v., 120 min): 6.86 ± 0.54 % Injected Dose per Gram Tissu | % Injected Dose per Gram Tissue, Liver ([2]; i.v., 120 min): 0.42 ± 0.02 % Injected Dose per Gram Tissu | % Injected Dose per Gram Tissue, Lungs ([2]; i.v., 120 min): 0.58 ± 0.06 % Injected Dose per Gram Tissu | % Injected Dose per Gram Tissue, Spleen ([2]; i.v., 120 min): 1.59 ± 0.16 % Injected Dose per Gram Tissu | % Injected Dose per Organ, Blood ([2]; i.v., 120 min): 0.45 ± 0.03 % Injected Dose per Organ | % Injected Dose per Organ, Brain ([2]; i.v., 120 min): 0.04 ± 0.01 % Injected Dose per Organ | % Injected Dose per Organ, Heart ([2]; i.v., 120 min): 0.01 ± 0.06 % Injected Dose per Organ | % Injected Dose per Organ, Kidney (one) ([2]; i.v., 120 min): 5.40 ± 0.24 % Injected Dose per Organ | % Injected Dose per Organ, Liver ([2]; i.v., 120 min): 3.91 ± 0.19 % Injected Dose per Organ | % Injected Dose per Organ, Lungs ([2]; i.v., 120 min): 0.64 ± 0.06 % Injected Dose per Organ | % Injected Dose per Organ, Spleen ([2]; i.v., 120 min): 0.97 ± 0.07 % Injected Dose per Organ | % injected dose in heart, 2 h ([2]; i.v., 2 h, preliminary studies): 1.01 ± 0.06 % injected dose | Heart/Blood ([2]; ratio, i.v., 1 min): 1.11 ± 0.40 | Heart/Liver ([2]; ratio, i.v., 1 min): 0.23 ± 0.06 | Heart/Lungs ([2]; ratio, i.v., 1 min): 1.07 ± 0.12 | Heart/Blood ([2]; ratio, i.v., 15 min): 9.65 ± 0.53 | Heart/Liver ([2]; ratio, i.v., 15 min): 0.32 ± 0.02 | Heart/Lungs ([2]; ratio, i.v., 15 min): 1.96 ± 0.20 | Heart/Blood ([2]; ratio, i.v., 120 min): 44.46 ± 1.63 | Heart/Liver ([2]; ratio, i.v., 120 min): 3.24 ± 0.07 | Heart/Lungs ([2]; ratio, i.v., 120 min): 2.34 ± 0.14
